Measured values from patent US5102667A, “Isoindolone derivatives, their preparation and the pharmaceutical compositions containing them” (Rhone-Poulenc Sante, priority 1989, dated 1992).
Read-outs that look alike come from different tables or passages of the source.

Columns and labels:
[1] = analgesic activity (technique of E. Siegmund et al.); assay type: in vivo
Text: Exp. Biol. Med., 95, 729 (1957).

[2] = test system: substance P receptors of human cells: lymphoblasts of line IM 9; test: binding of substance P-H^3 on washed homogenates of IM-9 cells; conditions: substance P-H^3 1 nM
Experimental: Substance P plays a role in the modulation of immune processes (J. P. McGillis et al., Fed. Proc., 46 (1), 196-199 (1987)). Substance P binds to receptors of human cells in cultures: the lymphoblasts of line IM 9 [D. G. Payan et al., J. of Immunology, 133 (6), 3260-5 (1984)]. The products according to the invention displace substance P at these locations.
Binding substance P--H^3 (concentration 1 nM)
on washed homogenates of IM-9 cells after freezing

substance P = test: inhibition of the increase in capillary permeability caused by substance P (technique of A. Saria et al.); assay type: in vivo; conditions: Rattus norvegicus, iv, rats
Text: The study of several isoindolone derivatives of general formula (I) using the technique of A. Saria et al., Arch.

septide [3] = test: antagonism of behavioural effects induced by septide administered intrathecally (technique of R. E. Rodriguez et al.); assay type: in vivo; conditions: rats
septide [4] = test: antagonism of hypotension induced by septide / substance P (technique of C. A. Maggi et al.); assay type: in vivo; conditions: 0.2 mg/kg i.v./min, for 5 min; rats; i.v. injection of 250 μg of septide
Experimental: The injection of substance P into the animal causes hypotension. The products studied using the technique of C. A. Maggi et al., J. Auton. Pharmac., 7, 11-32 (1987) show an antagonist effect in rats towards this hypotension. In particular, the product of Example 60 administered in a dose of 0.2 mg/kg i.v./min, for 5 min, causes an approximately 50% antagonism of the hypotension induced by an i.v. injection of 250 μg of septide.

For `N=C(Cc1ccccc1)N1C[C@@H]2C(=O)CCC(c3ccccc3)(c3ccccc3)[C@@H]2C1` (racemic) [Example 4, (3aRS,7aRS)-2-(α-iminophenethyl)-7,7-diphenyl-4-perhydroisoindolone], the ED50 ([1]; po, read-out: ED50) was 42 mg/kg.
Work on `O=C1CCC(c2ccccc2)(c2ccccc2)[C@@H]2CN(C(Cc3ccccc3)=NCc3ccccc3)C[C@H]12` (racemic) [Example 13, (3aRS,7aRS)-2-(α-benzyliminophenethyl)-7,7-diphenyl-4-perhydroisoindolone] yielded an ED50 ([1]; po, read-out: ED50) of 19 mg/kg.
`COc1ccccc1CC(=N)N1C[C@@H]2C(=O)CCC(c3ccccc3)(c3ccccc3)[C@@H]2C1` (racemic) [Example 48, (3aRS,7aRS)-2-[1-imino-2-(2-methoxyphenyl)ethyl]-7,7-diphenyl-4-perhydroisoindolone] gave an ED50 ([1]; p.o.) of 4 mg/kg p.o.
`O=C1CCC(c2ccccc2)(c2ccccc2)[C@@H]2CN(C(Cc3ccccc3)=NCc3cccs3)C[C@H]12` (relative stereo) [Example 27] gave an ED50 ([1]; po, read-out: ED50) of 29 mg/kg.
In the case of `COc1ccccc1CC(=O)N1C[C@@H]2C(=O)CCC(c3ccccc3)(c3ccccc3)[C@@H]2C1` [Example 49, (3aR,7aR)-(-)-7,7-diphenyl-2-[(2-methoxyphenyl)acetyl]-4-perhydroisoindolone], the “Binding substance P-H^3 (concentration 1 nM) on washed homogenates of IM-9 cells after freezing” value [2] is reported as 680.
In the case of `COc1ccccc1CC(=N)N1C[C@@H]2C(=O)CCC(c3ccccc3)(c3ccccc3)[C@@H]2C1` [Example 50, (3aR,7aR)-2-[1-imino-2-(2-methoxyphenyl)ethyl]-7,7-diphenyl-4-perhydroisoindolone], the ED50 (substance P) is reported as about 0.05 mg/kg, the “% inhibition of the behaviour at a dose of 10 mg/kg sc” value (septide [3]) is reported as 50% and the ED50 ([1]; p.o.) is reported as 0.3 mg/kg p.o.
In the case of `CN(C)c1ccccc1CC(=O)N1C[C@@H]2C(=O)CCC(c3ccccc3)(c3ccccc3)[C@@H]2C1` [Example 60, (3aR,7aR)-7,7-diphenyl-2-[2-(2-dimethylaminophenyl)acetyl]-4-perhydroisoindolone], the ED50 (substance P) is reported as about 1 mg/kg, the “% inhibition of the behaviour at a dose of 10 mg/kg sc” value (septide [3]) is reported as 80% and the “antagonism of the hypotension induced by septide” value (septide [4]) is reported as “approximately 50%”. For the same compound, the ED50 ([1]; po, read-out: ED50) was 38 mg/kg.
In the case of `COc1ccccc1[C@H](C)C(=O)N1C[C@@H]2C(=O)CCC(c3ccccc3)(c3ccccc3)[C@@H]2C1` [Example 76, (3aR,7aR)-7,7-diphenyl-2-[(S)-2-(2-methoxyphenyl)propionyl]-4-perhydroisoindolone], the “Binding substance P-H^3 (concentration 1 nM) on washed homogenates of IM-9 cells after freezing” value [2] is reported as 315.
